Test results taken from patent publication US20240000872A1, “NOVEL BACTERIOPHAGE THAT LYSES ACINETOBACTER GENUS BACTERIA HAVING RESISTANCE TO ANTIBIOTICS” (priority 2020, published 2024).

Tested on: Acinetobacter baumannii strains
Assay: Antibiotic susceptibility test (CLSI disk diffusion test method, read per CLSI 2016); for antibiotic susceptibility S/I/R: key: ‘S’ means susceptible; ‘I’ means intermediate; ‘R’ means resistant; for susceptibility category (S/I/R): key: ‘S’ means susceptible; ‘I’ means intermediate; ‘R’ means resistant
Format: cell-based
Set-up: antibiotic susceptibility test value / susceptibility test value (number given before S/I/R) / antibiotic susceptibility value: unit not given here

For gentamicin, the antibiotic susceptibility value (host strain YMC16/01/R353) was 16, the “susceptibility category (S/I/R)” value (host strain YMC16/01/R353) was “R” and the “susceptibility test value (number given before S/I/R)” value (“susceptibility test value” below) (host strain YMC16/01/R353) was 16. The “antibiotic susceptibility S/I/R” value (host strain YMC16/01/R380) was “R”, the antibiotic susceptibility value (host strain YMC16/01/R380) was 16 and the “susceptibility category (S/I/R)” value (host strain YMC16/01/R380) was “R”. For the same substance, the “susceptibility test value” value (host strain YMC16/01/R380) was 16, the “antibiotic susceptibility S/I/R” value (host strain YMC16/01/R397) was “R” and the antibiotic susceptibility value (host strain YMC16/01/R397) was 16. For the same substance, the “susceptibility category (S/I/R)” value (host strain YMC16/01/R397) was “R”, the “susceptibility test value” value (host strain YMC16/01/R397) was 16 and the “antibiotic susceptibility S/I/R” value (host strain YMC16/01/R405) was “R”. The antibiotic susceptibility value (host strain YMC16/01/R405) was 16, the “susceptibility category (S/I/R)” value (host strain YMC16/01/R405) was “R” and the “susceptibility test value” value (host strain YMC16/01/R405) was 16. The “antibiotic susceptibility S/I/R” value (host strain YMC16/03/R4461) was “R”, the antibiotic susceptibility value (host strain YMC16/03/R4461) was 16 and the “susceptibility category (S/I/R)” value (host strain YMC16/03/R4461) was “R”. The “susceptibility test value” value (host strain YMC16/03/R4461) was 16, the “antibiotic susceptibility S/I/R” value (host strain YMC16/05/R2210) was “R” and the antibiotic susceptibility value (host strain YMC16/05/R2210) was 16. For the same substance, the “susceptibility category (S/I/R)” value (host strain YMC16/05/R2210) was “R”, the “susceptibility test value” value (host strain YMC16/05/R2210) was 16 and the “antibiotic susceptibility S/I/R” value (host strain YMC16/07/R2512) was “R”. For the same substance, the antibiotic susceptibility value (host strain YMC16/07/R2512) was 16, the “susceptibility category (S/I/R)” value (host strain YMC16/07/R2512) was “R” and the “susceptibility test value” value (host strain YMC16/07/R2512) was 16. For the same substance, the “antibiotic susceptibility S/I/R” value (host strain YMC16/09/R2471) was “R”, the antibiotic susceptibility value (host strain YMC16/09/R2471) was 16 and the “susceptibility category (S/I/R)” value (host strain YMC16/09/R2471) was “R”. For the same substance, the “susceptibility test value” value (host strain YMC16/09/R2471) was 16, the “antibiotic susceptibility S/I/R” value (host strain YMC16/10/R2537) was “R” and the antibiotic susceptibility value (host strain YMC16/10/R2537) was 16. The “susceptibility category (S/I/R)” value (host strain YMC16/10/R2537) was “R”, the “susceptibility test value” value (host strain YMC16/10/R2537) was 16 and the “antibiotic susceptibility S/I/R” value (host strain YMC16/12/B11422) was “R”. The antibiotic susceptibility value (host strain YMC16/12/B11422) was 16, the “susceptibility category (S/I/R)” value (host strain YMC16/12/B11422) was “R” and the “susceptibility test value” value (host strain YMC16/12/B11422) was 16. For the same substance, the “antibiotic susceptibility S/I/R” value (host strain YMC16/12/B11449) was “R”, the antibiotic susceptibility value (host strain YMC16/12/B11449) was 16 and the “susceptibility category (S/I/R)” value (host strain YMC16/12/B11449) was “R”. The “susceptibility test value” value (host strain YMC16/12/B11449) was 16, the “antibiotic susceptibility S/I/R” value (host strain YMC16/12/B13325) was “R” and the antibiotic susceptibility value (host strain YMC16/12/B13325) was 16. The “susceptibility category (S/I/R)” value (host strain YMC16/12/B13325) was “R”, the “susceptibility test value” value (host strain YMC16/12/B13325) was 16 and the “antibiotic susceptibility S/I/R” value (host strain YMC16/12/P503) was “R”. The antibiotic susceptibility value (host strain YMC16/12/P503) was 16, the “susceptibility category (S/I/R)” value (host strain YMC16/12/P503) was “R” and the “susceptibility test value” value (host strain YMC16/12/P503) was 16. The “antibiotic susceptibility S/I/R” value (host strain YMC16/12/R4637) was “R”, the antibiotic susceptibility value (host strain YMC16/12/R4637) was 16 and the “susceptibility category (S/I/R)” value (host strain YMC16/12/R4637) was “R”. The “susceptibility test value” value (host strain YMC16/12/R4637) was 16, the “antibiotic susceptibility S/I/R” value (host strain YMC17/01/B8053) was “R” and the antibiotic susceptibility value (host strain YMC17/01/B8053) was 16. The “susceptibility category (S/I/R)” value (host strain YMC17/01/B8053) was “R”, the “susceptibility test value” value (host strain YMC17/01/B8053) was 16 and the “antibiotic susceptibility S/I/R” value (host strain YMC17/01/B10087) was “R”. The antibiotic susceptibility value (host strain YMC17/01/B10087) was 16, the “susceptibility category (S/I/R)” value (host strain YMC17/01/B10087) was “R” and the “susceptibility test value” value (host strain YMC17/01/B10087) was 16. The “antibiotic susceptibility S/I/R” value (host strain YMC17/01/B12075) was “S”, the antibiotic susceptibility value (host strain YMC17/01/B12075) was 1 and the “susceptibility category (S/I/R)” value (host strain YMC17/01/B12075) was “S”. The “susceptibility test value” value (host strain YMC17/01/B12075) was 1, the “antibiotic susceptibility S/I/R” value (host strain YMC17/01/B13454) was “R” and the antibiotic susceptibility value (host strain YMC17/01/B13454) was 16. For the same substance, the “susceptibility category (S/I/R)” value (host strain YMC17/01/B13454) was “R”, the “susceptibility test value” value (host strain YMC17/01/B13454) was 16 and the “antibiotic susceptibility S/I/R” value (host strain YMC17/01/P518) was “R”. The antibiotic susceptibility value (host strain YMC17/01/P518) was 16, the “susceptibility category (S/I/R)” value (host strain YMC17/01/P518) was “R” and the “susceptibility test value” value (host strain YMC17/01/P518) was 16. For the same substance, the “antibiotic susceptibility S/I/R” value (host strain YMC17/01/R2812) was “R”, the antibiotic susceptibility value (host strain YMC17/01/R2812) was 16 and the “susceptibility category (S/I/R)” value (host strain YMC17/01/R2812) was “R”. For the same substance, the “susceptibility test value” value (host strain YMC17/01/R2812) was 16, the “antibiotic susceptibility S/I/R” value (host strain YMC17/02/B14) was “R” and the antibiotic susceptibility value (host strain YMC17/02/B14) was 16. The “susceptibility category (S/I/R)” value (host strain YMC17/02/B14) was “R” and the “susceptibility test value” value (host strain YMC17/02/B14) was 16.
